Read-outs that look alike come from different tables or passages of the source.
Key:
IEC-18 cells = assay: MTT assay, IEC-18 intestinal epithelial cells; assay type: cell-based, rat
Description: (§1) A MTT [3-(4,5-dimethylthiazolyl-2)-2,5-diphenyltetrazolium bromide] (Sigma, St Louis, Mo.) assay was performed to determine cell proliferation. Briefly, CL1-5, A549, PC-9, H1650, H1975 and IEC-18 cells were plated in 96-well plates at a density of 5×10^3 cells/well. […] MTT solution to a final concentration in the culture medium 0.5 mg/ml was then added to the wells. After a further 1.5 h of incubation, the medium was removed and DMSO was added to the plates.

[1] = test system: active-p38 in IEC-18 cells; assay: Western blot active-p38, IEC-18; assay type: cell-based, rat
[2] = test system: CL1-5 lung adenocarcinoma xenograft; assay: CL1-5 xenograft tumor growth; assay type: in vivo, SCID mice; details: control 638.55
[3] = test system: EGFR protein in lung adenocarcinoma cells; assay: EGFR degradation (Western blot) and ubiquitination (immunoprecipitation); assay type: cell-based; details: without MG132
[4] = test system: pAKT, cyclin D1 in H1975 cells; assay: Western blot EGFR signaling, H1975; assay type: cell-based, human; details: H1975, curcumin 1-20 μM, EGF 20 ng/ml
[5] = test system: pEGFR, pAKT in H1299 cells; assay: Western blot EGFR signaling, H1299; assay type: cell-based, human; details: gefitinib 1 μM alone, curcumin 10 and 15 μM alone, or gefitinib 1 μM + curcumin 15 μM
H1299 cells = assay type: cell-based, human
[6] = test system: EGFR, pEGFR, AKT, pAKT in CL1-5 cells; assay: Western blot EGFR signaling, CL1-5; assay type: cell-based, human
[7] = test system: EGFR, pEGFR, AKT, pAKT in A549 cells; assay: Western blot EGFR signaling, A549; assay type: cell-based, human
EGFR mRNA in CL1-5 cells = assay: Real-time quantitative RT-PCR of EGFR; assay type: cell-based, human; details: CL1-5, 1-20 μM, 24 h
H1975 cells [8] = details: 15 μM curcumin without gefitinib
[9] = Adverse gastrointestinal effects and survival in xenograft study
CL1-5 cells = assay type: cell-based, human
Description: as §1

A549 cells = assay type: cell-based, human
Description: as §1

H1975 cells [10] = assay type: cell-based, human
Description: as §1

H1650 cells = assay type: cell-based, human
Description: as §1

[11] = SCID, mouse, in vivo, po, 3 weeks
[12] = test system: active-p38 in CL1-5 cells; assay: Western blot active-p38, CL1-5; assay type: cell-based, human; details: CL1-5, gefitinib 0-20 μM

Cc1ccc(-n2nc(C(C)(C)C)cc2NC(=O)Nc2ccc(OCCN3CCOCC3)c3ccccc23)cc1 [BIRB 796, reference compound]
rescue from toxic effect of gefitinib (cell survival) (IEC-18 cells; IEC-18, curcumin 5 μM, BIRB 796 10 nM, gefitinib 30 and 40 μM): rescue the cells from this toxic effect of gefitinib | active-p38 expression on gefitinib-treated cells ([1]; IEC-18, curcumin 5 μM, BIRB 796 10 nM): significantly decrease the active-p38 expression

CCOC(=O)CC/C(C(=O)/C=C/c1ccc(O)c(OC)c1)=C(O)\C=C\c1ccc(O)c(OC)c1 [JC-15]
protection against gefitinib-induced intestinal cell death (FIG. 10) (IEC-18 cells): protective effect to reduce gefitinib-induced intestinal cell death

COc1cc(/C=C/C(=O)C(C(C)=O)C(O)/C=C/c2ccc(O)c(OC)c2)ccc1O (centres unmarked) [LL68]
protection against gefitinib-induced intestinal cell death (FIG. 10) (IEC-18 cells): protective effect to reduce gefitinib-induced intestinal cell death

COc1cc(/C=C/C(O)=C/C(=O)/C=C/c2ccc(O)cc2)ccc1O [LL-18]
protection against gefitinib-induced intestinal cell death (FIG. 10) (IEC-18 cells): protective effect to reduce gefitinib-induced intestinal cell death

COc1cc(/C=C/C(=O)/C=C(O)/C=C/c2ccc(O)c(OC)c2)ccc1O [curcumin, diferuloylmethane]
rescue from toxic effect of gefitinib (cell survival) (IEC-18 cells): rescue the cells from this toxic effect of gefitinib | average tumor size at the end of the study ([2]; curcumin 1 g/kg orally once daily): 354.91 mm^3 | EGFR protein expression [3]: inhibit the EGFR protein expression in a dose-dependent manner | AKT phosphorylation [4]: not altered | level of cyclin D1 [4]: significantly reduced | pEGFR and pAKT (FIG. 4B) [5]: minimal suppressive effect | cell proliferation (FIG. 4A) (H1299 cells): slight inhibition of cell proliferation | proliferation (FIG. 1A right) (H1299 cells; H1299, curcumin alone): inhibited by curcumin in a concentration-dependent manner | levels of EGFR and AKT in the tumors (CL1-5 tumor tissue; Western blot of tumor tissue): decreased | PCNA marker in tumor tissue (CL1-5 tumor tissue; immunohistochemical staining): decreased | cell apoptosis in tumor tissue (TUNEL) (CL1-5 tumor tissue; in situ cell death detection, vs control (and gefitinib only)): induced cell apoptosis | EGFR, pEGFR, AKT, and pAKT protein expression ([6]; CL1-5, curcumin 1-20 μM, EGF 20 ng/ml): reduce EGFR, pEGFR, AKT, and pAKT protein expression | pEGFR and pAKT (FIG. 4B) ([6]; CL1-5, gefitinib 1 μM alone, curcumin 10 and 15 μM alone, or gefitinib 1 μM + curcumin 15 μM): minimal suppressive effect | EGFR, pEGFR, AKT, and pAKT protein expression ([7]; A549, curcumin 1-20 μM, EGF 20 ng/ml): reduce EGFR, pEGFR, AKT, and pAKT protein expression | pEGFR and pAKT (FIG. 4B) ([7]; A549, gefitinib 1 μM alone, curcumin 10 and 15 μM alone, or gefitinib 1 μM + curcumin 15 μM): minimal suppressive effect | EGFR mRNA expression (EGFR mRNA in CL1-5 cells): reduce EGFR mRNA expression in a concentration-dependent manner | cells in apoptosis (H1975 cells [8]): about 90% | morphology / full length of the intestine [9]: no obvious differences | cell proliferation (FIG. 4A) (CL1-5 cells): slight inhibition of cell proliferation | proliferation (FIG. 1A right) (CL1-5 cells; CL1-5, curcumin alone): inhibited by curcumin in a concentration-dependent manner | cell proliferation (FIG. 4A) (A549 cells): slight inhibition of cell proliferation | proliferation (FIG. 1A right) (A549 cells; A549, curcumin alone): inhibited by curcumin in a concentration-dependent manner | cell proliferation (FIG. 4A) (H1975 cells [10]): slight inhibition of cell proliferation | proliferation (FIG. 1A right) (H1975 cells [10]; H1975, curcumin alone): inhibited by curcumin in a concentration-dependent manner | cell proliferation (FIG. 4A) (H1650 cells): slight inhibition of cell proliferation | proliferation (FIG. 1A right) (H1650 cells; H1650, curcumin alone): inhibited by curcumin in a concentration-dependent manner

COc1cc2ncnc(Nc3ccc(F)c(Cl)c3)c2cc1OCCCN1CCOCC1 [gefitinib, N-(3-Chloro-4-fluoro-phenyl)-7-methoxy-6-(3-morpholin-4-ylpropoxy)quinazolin-4-amine]
IC25 for IEC-18 cell (IEC-18 cells; IEC-18): 30 µM | IEC-18 cell survival (IEC-18 cells; gefitinib 30 and 40 μM, 24 h): significantly reduce IEC-18 cell survival | average tumor size at the end of the study ([2]; gefitinib 120 mg/kg orally once daily): 138.32 mm^3 | survival rate [11]: 33% | p38 activation [12]: did not elevate the p38 activation | body weight [9]: dramatic body weight lost | diarrhea [9]: obviously diarrhea side effect | morphology / full length of the intestine [9]: shorter and thinner | active-p38 ([1]; IEC-18, gefitinib 0-20 μM): significant increased in a dose dependent manner | cell proliferation (FIG. 4A) (A549 cells): slight inhibition of cell proliferation
